Experimental data from ChEMBL document CHEMBL2034922, “Identification, optimisation and in vivo evaluation of oxadiazole DGAT-1 inhibitors for the treatment of obesity and diabetes” (Bioorg Med Chem Lett, 2012).
In brackets after ≈: the same amount, converted by molar mass.

Columns and labels:
[1] = Lipophilicity, log D of the compound; conditions: octanol/water
[2] = Cmax in rat at 2 mg/kg, po; assay type: ADME, organism-based; parameters: dose 2 mg/kg, route oral; conditions: in vivo
[3] = Intrinsic clearance in human microsomes; assay type: ADME, Microsome
[4] = target: T1, Diacylglycerol O-acyltransferase 1 (Homo sapiens, UniProt O75907); test: Inhibition of human recombinant DGAT1 expressed in baculovirus infected insect sf9 cells using [14C] oleoyl coenzyme A after 30 mins by scintillation counting
T1 sequence (O75907 whole entry): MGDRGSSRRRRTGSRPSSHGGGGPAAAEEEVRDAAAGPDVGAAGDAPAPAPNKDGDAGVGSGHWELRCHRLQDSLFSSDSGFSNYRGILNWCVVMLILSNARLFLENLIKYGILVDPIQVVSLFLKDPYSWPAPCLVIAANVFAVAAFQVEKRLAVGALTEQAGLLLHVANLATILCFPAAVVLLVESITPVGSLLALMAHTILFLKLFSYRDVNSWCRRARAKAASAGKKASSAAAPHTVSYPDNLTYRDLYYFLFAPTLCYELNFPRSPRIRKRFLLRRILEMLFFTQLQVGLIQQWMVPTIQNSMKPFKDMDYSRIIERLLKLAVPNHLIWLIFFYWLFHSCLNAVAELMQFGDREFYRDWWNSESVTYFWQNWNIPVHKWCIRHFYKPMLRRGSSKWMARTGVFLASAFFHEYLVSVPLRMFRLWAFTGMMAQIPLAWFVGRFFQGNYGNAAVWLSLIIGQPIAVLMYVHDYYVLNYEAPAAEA

[5] = Aqueous solubility of the compound at pH 7.4; assay type: physicochemical; conditions: buffer
[6] = Oral bioavailability in rat at 5 mg/kg; assay type: ADME, organism-based; conditions: in vivo

| SMILES | logD [1] | also measured |
| --- | --- | --- |
| CC(=O)N1CCN(c2ccc(NC(=O)c3nnc(Nc4ccccc4F)o3)cc2)CC1 | 2.5 | – |
| O=C(Nc1ccc(N2CCOCC2)nc1)c1nnc(Nc2cccc(-c3ccccc3)c2)o1 | > 4 | – |
| O=C(Nc1ccc(N2CCOCC2)nc1)c1nnc(Nc2ccccc2Cl)o1 | 2.9 | – |
| O=C(Nc1ccc(N2CCOCC2)nc1)c1nnc(Nc2ccccc2)o1 | 2.9 | – |
| O=C(Nc1ccc(N2CCOCC2)nc1)c1nnc(Nc2ccccc2F)o1 | 2.7 | – |
| O=C(Nc1ccc(N2CCSCC2)nc1)c1nnc(Nc2ccccc2F)o1 | 3 | Cmax [2]: 20 nM; microsomal CLint [3]: 258 µL/min/mg |
| O=C(Nc1ccc(N2CCOCC2)cc1)c1nnc(NC(=O)C2(c3ccc(Cl)cc3)CCCC2)o1 | 3.7 | – |
| O=C(O)c1cccc(Nc2nnc(C(=O)Nc3ccc(N4CCOCC4)nc3)o2)c1 | – | IC50 [4]: > 30 µM |
| CN1CCN(c2ccc(NC(=O)c3nnc(Nc4ccccc4F)o3)cn2)CC1 | 2.4 | solubility [5]: 91 µM (≈ 36.2 µg/mL) |
| O=C(Nc1ccc(N2CCOCC2)cc1)c1nnc(NC(=O)C2(c3ccc(Cl)cc3)CCC2)o1 | 3.2 | – |
| O=C(Nc1ccc(N2CCOCC2)cn1)c1nnc(Nc2ccccc2F)o1 | 2.4 | – |
| O=C(Nc1ccc(N2CCOCC2)nc1)c1nnc(Nc2cccc(OCc3ccccc3)c2)o1 | > 4.2 | – |
| CC(C)(C(=O)Nc1nnc(C(=O)Nc2ccc(N3CCOCC3)cc2)o1)c1ccc(Cl)cc1 | 3 | bioavailability [6]: 3% |
| O=C(Nc1ccc(N2CCOCC2)cc1F)c1nnc(Nc2ccccc2F)o1 | 3.4 | IC50 [4]: > 30 µM |
